# Measured values: US20250197382A1, “KIF18A INHIBITOR” (WIGEN BIOMEDICINE TECHNOLOGY (SHANGHAI) CO., LTD., priority 2022, published 2025)
# pIC50: −log10 of the molar value.
# Molecular target: Recombinant human KIF18A (1-467His-tagged) protein (Homo sapiens (Human), UniProt Q8NI77)
# Assay: KIF18A enzyme assay (microtubule-stimulated ATPase activity, ADP-Glo)
# Format: biochemical
# Conditions: 30 nM KIF18A, ATP 75 μM, read-out: inhibitory activity against KIF18A IC50
# Method: Biological Example 1. Assay for In Vitro Inhibition of Enzymatic Activity of KIF18A by Compounds of the Present Invention
# KIF18A enzyme assay: The enzymatic activity of KIF18A after treatment with the compounds was measured by an assay of microtubule-stimulated ATPase activity. ADP generated from the ATPase reaction was measured in this assay. The compounds were serially diluted 2-fold in DMSO over a range of 22 concentration points. Recombinant human KIF18A (1-467His-tagged) protein was expressed using a baculovirus system. Concentrations of KIF18A protein, microtubules, and ATP in the reaction were optimized for a standardized homogenous enzyme assay using an ADP-Glo kinase/ATPase assay kit. A reaction buffer [(15 mM Tris, pH 7.5), 10 mM MgCl2, 0.01% PluronicF-68, 1 μM paclitaxel, and 30 μg/mL pig microtubules] was prepared. The compounds and KIF18A protein (30 nM) were added to the prepared reaction buffer, and the reaction mixture was incubated at room temperature for 15 min, followed by addition of ATP (Km, 75 μM). The resulting reaction mixture was incubated at room temperature for another 15 min. 5 μL of ADP-Glo reagent and 2.5 μL of the reaction mixture were mixed and the resulting mixture was incubated at room temperature for 40 min. 10 μL of ADP-Glo detection reagent was added and the mixture was incubated at room temperature for 40 min. Luminescence was measured using a microplate reader and compared with that of the DMSO group, and then the inhibition percentages and IC50 values of the compounds were calculated.
# Chain of Recombinant human KIF18A (1-467His-tagged) protein (Q8NI77 1-467): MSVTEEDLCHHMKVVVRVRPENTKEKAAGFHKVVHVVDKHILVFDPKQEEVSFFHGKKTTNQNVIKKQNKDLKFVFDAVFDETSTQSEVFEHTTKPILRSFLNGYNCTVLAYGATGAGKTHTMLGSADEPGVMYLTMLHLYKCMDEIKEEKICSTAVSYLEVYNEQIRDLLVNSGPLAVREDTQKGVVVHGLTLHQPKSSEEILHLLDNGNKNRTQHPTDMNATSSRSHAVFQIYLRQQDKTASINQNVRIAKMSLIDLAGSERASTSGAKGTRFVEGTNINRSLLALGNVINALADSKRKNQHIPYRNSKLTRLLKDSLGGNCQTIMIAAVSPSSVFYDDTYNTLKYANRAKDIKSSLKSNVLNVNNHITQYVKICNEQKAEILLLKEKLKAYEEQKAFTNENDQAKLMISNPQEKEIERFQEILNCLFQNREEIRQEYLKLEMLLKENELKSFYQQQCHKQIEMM
# Chain of Recombinant human KIF18A (1-467His-tagged) protein (P02550 whole entry partner): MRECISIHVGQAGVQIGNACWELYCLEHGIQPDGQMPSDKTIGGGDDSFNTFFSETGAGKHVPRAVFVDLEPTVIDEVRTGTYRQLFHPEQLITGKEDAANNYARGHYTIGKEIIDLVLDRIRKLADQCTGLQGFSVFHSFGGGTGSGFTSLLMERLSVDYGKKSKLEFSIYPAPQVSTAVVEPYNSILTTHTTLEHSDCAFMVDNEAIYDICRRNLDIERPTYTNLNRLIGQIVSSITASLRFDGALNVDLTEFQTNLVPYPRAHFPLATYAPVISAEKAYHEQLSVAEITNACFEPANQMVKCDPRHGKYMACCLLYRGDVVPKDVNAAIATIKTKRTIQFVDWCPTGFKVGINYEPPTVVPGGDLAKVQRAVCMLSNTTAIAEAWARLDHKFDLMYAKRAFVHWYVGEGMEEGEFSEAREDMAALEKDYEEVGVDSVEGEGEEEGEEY
# Chain of Recombinant human KIF18A (1-467His-tagged) protein (P02554 whole entry partner): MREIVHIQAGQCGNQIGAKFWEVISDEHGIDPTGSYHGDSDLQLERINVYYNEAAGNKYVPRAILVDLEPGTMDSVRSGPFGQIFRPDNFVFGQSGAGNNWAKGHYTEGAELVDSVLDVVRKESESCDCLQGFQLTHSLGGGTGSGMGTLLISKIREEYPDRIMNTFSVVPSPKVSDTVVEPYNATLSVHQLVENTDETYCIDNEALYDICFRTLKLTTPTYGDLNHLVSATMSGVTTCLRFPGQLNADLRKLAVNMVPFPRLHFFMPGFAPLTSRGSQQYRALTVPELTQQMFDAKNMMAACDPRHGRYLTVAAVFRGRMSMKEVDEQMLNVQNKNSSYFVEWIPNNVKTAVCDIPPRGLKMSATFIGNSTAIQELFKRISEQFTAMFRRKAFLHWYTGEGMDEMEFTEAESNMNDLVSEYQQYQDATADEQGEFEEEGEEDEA
row,Compound,pIC50
1,CC1(F)CCN(c2cc(NC(=O)c3ccc(S(=O)(=O)NCCO)cc3N3CCC4(CC3)CC4)cc3c2OCC3)C1 (stereo not shown) [Compound 24],≥ 7.00
2,O=C(Nc1ccc(NS(=O)(=O)CCO)cc1N1CCC2(CC1)CC2)c1cc2c(c(N3CCC(F)(F)CC3)c1)OCCC2 [Compound 545],≥ 7.00
3,CC(C)(CO)Nc1nc(NC(=O)c2ccc(S(=O)(=O)NCCO)cc2N2CCC3(CC2)CC3)cc2ccoc12 [Compound 219],≥ 7.00
4,O=C(Nc1ccc(NS(=O)(=O)CCO)cc1N1CCC2(CC1)CC2)c1cc2c(c(N3CCC4(CC4)C3)c1)OCC2 [Compound 38],≥ 7.00
5,O=C(Nc1ccc(NS(=O)(=O)CCO)cc1N1CCC2(CC1)CC2)c1cc2c(c(OC3CCC3)n1)OCC2 [Compound 103],≥ 7.00
6,C[C@@H](CO)S(=O)(=O)Nc1ccc(NC(=O)c2cc(N3CCC(F)(F)CC3)c3c(ccn3C)c2)c(N2CCC3(CC2)CC3)c1 [Compound 429],≥ 7.00
7,CN1CCc2cc(NC(=O)c3ccc(S(=O)(=O)NCCO)cc3N3CCC4(CC3)CC4)cc(OC3CCC3)c21 [Compound 279],≥ 7.00
8,Cn1ccc2cc(C(=O)Nc3ccc(NS(=O)(=O)CCO)cc3N3CCC4(CC3)CC4)nc(OC3CCC3)c21 [Compound 487],≥ 7.00
9,CC(C)(CO)Nc1nc(C(=O)Nc2ccc(NS(=O)(=O)CCO)cc2N2CCC3(CC2)CC3)cc2c1OCC2 [Compound 107],≥ 7.00
10,CC1(F)CCN(c2cc(NC(=O)c3ccc(S(=O)(=O)NCCO)cc3N3CCC4(CC3)CC4)cc3ccoc23)C1 (stereo not shown) [Compound 152],≥ 7.00
11,CN1CCc2cc(NC(=O)c3ccc(S(=O)(=O)NCCO)cc3N3CCC4(CC3)CC4)nc(N3CC(F)(F)C3)c21 [Compound 340],≥ 7.00
12,Cn1ccc2cc(C(=O)Nc3ccc(S(=O)(=O)NCCO)cc3N3CCC4(CC3)CC4)cc(OCCC(F)(F)F)c21 [Compound 437],≥ 7.00
13,C[C@@H]1CN(c2cc(NC(=O)c3ccc(NS(=O)(=O)[C@@H](C)CO)cc3N3CCC4(CC3)CC4)cc3c2N(C)CC3)CCO1 [Compound 271],≥ 7.00
14,C[C@@H](CO)S(=O)(=O)Nc1ccc(NC(=O)c2cc3c(c(N4CCC(F)(F)CC4)n2)OCC3)c(N2CCC3(CC2)CC3)c1 [Compound 109],≥ 7.00
15,CN1CCc2cc(C(=O)Nc3ccc(S(=O)(=O)NCCO)cc3N3CCC4(CC3)CC4)cc(N3CCC(F)CC3)c21 [Compound 313],≥ 7.00
16,C[C@H]1CN(c2nc(C(=O)Nc3ccc(NS(=O)(=O)CCO)cc3N3CCC4(CC3)CC4)cc3ccn(C)c23)CCO1 [Compound 483],≥ 7.00
17,O=C(Nc1cc2c(c(N3CCC(F)(F)CC3)n1)OCCO2)c1ccc(NS(=O)(=O)CCO)cc1N1CCC2(CC1)CC2 [Compound 544],≥ 7.00
18,C[C@@H]1CN(c2nc(C(=O)Nc3ccc(S(=O)(=O)N[C@@H](C)CO)cc3N3CCC4(CC3)CC4)cc3ccn(C)c23)CCO1 [Compound 511],≥ 7.00
19,C[C@@H]1CN(c2cc(C(=O)Nc3ccc(S(=O)(=O)NCCO)cc3N3CCC4(CC3)CC4)cc3c2N(C)CC3)CCO1 [Compound 306],≥ 7.00
20,O=C(Nc1cc(N2CC(F)(F)C2)c2occc2c1)c1ccc(NS(=O)(=O)CCO)cc1N1CCC2(CC1)CC2 [Compound 132],≥ 7.00

row,Compound,pIC50
1,O=C(Nc1ccc(S(=O)(=O)NCCO)cc1N1CCC2(CC1)CC2)c1cc2c(c(OC3CCC3)c1)OCC2 [Compound 55],≥ 7.00
2,CC1(F)CCN(c2nc(C(=O)Nc3ccc(S(=O)(=O)NCCO)cc3N3CCC4(CC3)CC4)cc3ccoc23)C1 (stereo not shown) [Compound 248],≥ 7.00
3,Cn1ccc2cc(C(=O)Nc3ccc(S(=O)(=O)NCCO)cc3N3CCC4(CC3)CC4)cc(N3CCC(F)CC3)c21 [Compound 441],≥ 7.00
4,O=C(Nc1cc2ccoc2c(OC2CCC2)n1)c1ccc(S(=O)(=O)NCCO)cc1N1CCC2(CC1)CC2 [Compound 215],≥ 7.00
5,C[C@H](CO)S(=O)(=O)Nc1ccc(C(=O)Nc2cc3ccoc3c(N3CCC(F)(F)CC3)n2)c(N2CCC3(CC2)CC3)c1 [Compound 206],≥ 7.00
6,O=C(Nc1cc2ocnc2c(N2CCC(F)(F)CC2)n1)c1ccc(NS(=O)(=O)CCO)cc1N1CCC2(CC1)CC2 [Compound 518],≥ 7.00
7,O=C(Nc1ccc(NS(=O)(=O)CCO)cc1N1CCC2(CC1)CC2)c1cc2ccoc2c(N2CCOCC2)n1 [Compound 236],≥ 7.00
8,C[C@@H]1CN(c2nc(NC(=O)c3ccc(NS(=O)(=O)[C@@H](C)CO)cc3N3CCC4(CC3)CC4)cc3c2N(C)CC3)CCO1 [Compound 335],≥ 7.00
9,O=C(Nc1ccc(NS(=O)(=O)CCO)cc1N1CCC2(CC1)CC2)c1cc2ccoc2c(N2CC(F)(F)C2)n1 [Compound 228],≥ 7.00
10,O=C(Nc1cc2scnc2c(N2CCC(F)(F)CC2)n1)c1ccc(NS(=O)(=O)CCO)cc1N1CCC2(CC1)CC2 [Compound 520],≥ 7.00
11,C[C@@H](CO)NS(=O)(=O)c1ccc(NC(=O)c2cc3c(c(N4CCC(F)(F)CC4)c2)OCC3)c(N2CCC3(CC2)CC3)c1 [Compound 61],≥ 7.00
12,O=C(Nc1ccc(S(=O)(=O)NCCO)cc1N1CCC2(CC1)CC2)c1cc2ccoc2c(OC2CCC2)n1 [Compound 247],≥ 7.00
13,O=C(Nc1cc(N2CC3CC3C2)c2occc2c1)c1ccc(S(=O)(=O)NCCO)cc1N1CCC2(CC1)CC2 (stereo not shown) [Compound 154],≥ 7.00
14,C[C@H](CO)NS(=O)(=O)c1ccc(C(=O)Nc2cc3ccoc3c(N3CCC(F)(F)CC3)n2)c(N2CCC3(CC2)CC3)c1 [Compound 222],≥ 7.00
15,O=C(Nc1ccc(S(=O)(=O)NCCO)cc1N1CCC2(CC1)CC2)c1cc2c(c(OC3CCC3)n1)OCC2 [Compound 119],≥ 7.00
16,O=C(Nc1cc2c(c(N3CC4CC4C3)c1)OCC2)c1ccc(NS(=O)(=O)CCO)cc1N1CCC2(CC1)CC2 (stereo not shown) [Compound 10],≥ 7.00
17,CN1CCc2cc(NC(=O)c3ccc(S(=O)(=O)NCCO)cc3N3CCC4(CC3)CC4)nc(OC3CCC3)c21 [Compound 343],≥ 7.00
18,O=C(Nc1ccc(NS(=O)(=O)CCO)cc1N1CCC2(CC1)CC2)c1cc(N2CCC(F)(F)CC2)c2occc2c1 [Compound 161],≥ 7.00
19,O=C(Nc1cc(N2CCC(F)(F)CC2)c2scnc2c1)c1ccc(NS(=O)(=O)CCO)cc1N1CCC2(CC1)CC2 [Compound 515],≥ 7.00
20,O=C(Nc1cc2c(c(N3CCC(F)(F)CC3)n1)OCCC2)c1ccc(S(=O)(=O)NCCO)cc1N1CCC2(CC1)CC2 [Compound 549],≥ 7.00

row,Compound,pIC50
1,CN1CCc2cc(C(=O)Nc3ccc(S(=O)(=O)NCCO)cc3N3CCC4(CC3)CC4)cc(N3CCC(F)(F)CC3)c21 [Compound 305],≥ 7.00
2,CN1CCc2cc(C(=O)Nc3ccc(S(=O)(=O)NCCO)cc3N3CCC4(CC3)CC4)cc(N3CCC(C)(F)C3)c21 (stereo not shown) [Compound 312],≥ 7.00
3,O=C(Nc1cc2c(c(OCCC(F)(F)F)c1)OCC2)c1ccc(S(=O)(=O)NCCO)cc1N1CCC2(CC1)CC2 [Compound 21],≥ 7.00
4,O=C(Nc1cc(N2CCC(F)(F)CC2)c2ncoc2c1)c1ccc(NS(=O)(=O)CCO)cc1N1CCC2(CC1)CC2 [Compound 517],≥ 7.00
5,C[C@@H](CO)S(=O)(=O)Nc1ccc(NC(=O)c2cc3c(c(N4CCC(F)(F)CC4)n2)N(C)CC3)c(N2CCC3(CC2)CC3)c1 [Compound 365],≥ 7.00
6,O=C(Nc1ccc(NS(=O)(=O)CCO)cc1N1CCC2(CC1)CC2)c1cc2ccoc2c(OCCC(F)(F)F)n1 [Compound 229],≥ 7.00
7,O=C(Nc1ccc(S(=O)(=O)NCCO)cc1N1CCC2(CC1)CC2)c1cc2ccoc2c(N2CC(F)(F)C2)n1 [Compound 244],≥ 7.00
8,CC(C)(CO)Nc1nc(C(=O)Nc2ccc(S(=O)(=O)NCCO)cc2N2CCC3(CC2)CC3)cc2ccoc12 [Compound 251],≥ 7.00
9,C[C@H]1CN(c2cc(NC(=O)c3ccc(NS(=O)(=O)CCO)cc3N3CCC4(CC3)CC4)cc3ccn(C)c23)CCO1 [Compound 387],≥ 7.00
10,O=C(Nc1ccc(NS(=O)(=O)CCO)cc1N1CCC2(CC1)CC2)c1cc2c(c(N3CCOCC3)c1)OCC2 [Compound 44],≥ 7.00
11,C[C@@H]1CN(c2cc(C(=O)Nc3ccc(NS(=O)(=O)[C@@H](C)CO)cc3N3CCC4(CC3)CC4)cc3c2N(C)CC3)CCO1 [Compound 303],≥ 7.00
12,Cn1ccc2cc(NC(=O)c3ccc(S(=O)(=O)NCCO)cc3N3CCC4(CC3)CC4)cc(N3CCC(F)(F)CC3)c21 [Compound 401],≥ 7.00
13,Cn1ccc2cc(C(=O)Nc3ccc(NS(=O)(=O)CCO)cc3N3CCC4(CC3)CC4)nc(N3CC(F)(F)C3)c21 [Compound 484],≥ 7.00
14,O=C(Nc1ccc(NS(=O)(=O)CCO)cc1N1CCC2(CC1)CC2)c1cc2c(c(N3CCOCC3)n1)OCC2 [Compound 108],≥ 7.00
15,C[C@H]1CN(c2nc(C(=O)Nc3ccc(S(=O)(=O)NCCO)cc3N3CCC4(CC3)CC4)cc3c2OCC3)CCO1 [Compound 115],≥ 7.00
16,O=C(Nc1ccc(S(=O)(=O)NCCO)cc1N1CCC2(CC1)CC2)c1cc(N2CCC(F)CC2)c2occc2c1 [Compound 185],≥ 7.00
17,C[C@@H]1CN(c2cc(NC(=O)c3ccc(NS(=O)(=O)[C@H](C)CO)cc3N3CCC4(CC3)CC4)cc3ccoc23)CCO1 [Compound 144],≥ 7.00
18,O=C(Nc1cc(N2CCC3(CC3)C2)c2occc2c1)c1ccc(NS(=O)(=O)CCO)cc1N1CCC2(CC1)CC2 [Compound 134],≥ 7.00
